In patent US20170105986A1, “Topical Formulation to Enhance Genital Sensation and Function” (priority 2014, published 2017):

Tested on: genital area of the patient
Test: Short term effect of the topical formulation applied to the genital area, as reported by users
Format: in vivo, human
Settings: for functionality as component of the topical formulation: forms of coQ10 added to the formulation; for somewhat improved sexual function continuing after use: middle-aged male, component of the formula
From the text: The following examples are used to show the short term effect of the topical formulation when applied to the genital area of the patient.

| Compound | functionality as component of the topical formulation | period for which the effects of the topical formulation are prolonged following administration (ATP included in second core composition) | somewhat improved sexual function continuing after use |
| --- | --- | --- | --- |
| COC1=C(OC)C(=O)C(C/C=C(\C)CC/C=C(\C)CC/C=C(\C)CC/C=C(\C)CC/C=C(\C)CC/C=C(\C)CC/C=C(\C)CC/C=C(\C)CC/C=C(\C)CCC=C(C)C)=C(C)C1=O [ubiquinone, reference compound] | seems not functional |  |  |
| COc1c(O)c(C)c(C/C=C(\C)CC/C=C(\C)CC/C=C(\C)CC/C=C(\C)CC/C=C(\C)CC/C=C(\C)CC/C=C(\C)CC/C=C(\C)CC/C=C(\C)CCC=C(C)C)c(O)c1OC [ubiquinol, reference compound] | seems not functional |  |  |
| Nc1ncnc2c1ncn2[C@@H]1O[C@H](COP(=O)(O)OP(=O)(O)OP(=O)(O)O)[C@@H](O)[C@H]1O [ATP, adenosine triphosphate] |  | ~12 h | about 10 hours |
| NC(=O)c1ccc[n+]([C@@H]2O[C@H](CO)[C@@H](O)[C@H]2O)c1 [nicotinamide ribose, nicotinamide riboside] |  |  | about 10 hours |
